Test results published in PMC11233931, “Remodeling tumor‐associated macrophage for anti‐cancer effects by rational design of irreversible inhibition of mitogen‐activated protein kinase‐activated protein kinase 2” (MedComm, 2024).

Tests used:
Assay in all cases: Eurofins kinase selectivity profile against 380 other human recombinant kinases (Table S2)
Format in all cases: biochemical
[1] = target: T1, 380 human recombinant protein kinases (Homo sapiens, UniProt Q8NG66); settings: NEK11(h), read-out: Inhibition rate
T1 construct: purchased Eurofins (Celle Lévescault)
T1 sequence (Q8NG66 1-645): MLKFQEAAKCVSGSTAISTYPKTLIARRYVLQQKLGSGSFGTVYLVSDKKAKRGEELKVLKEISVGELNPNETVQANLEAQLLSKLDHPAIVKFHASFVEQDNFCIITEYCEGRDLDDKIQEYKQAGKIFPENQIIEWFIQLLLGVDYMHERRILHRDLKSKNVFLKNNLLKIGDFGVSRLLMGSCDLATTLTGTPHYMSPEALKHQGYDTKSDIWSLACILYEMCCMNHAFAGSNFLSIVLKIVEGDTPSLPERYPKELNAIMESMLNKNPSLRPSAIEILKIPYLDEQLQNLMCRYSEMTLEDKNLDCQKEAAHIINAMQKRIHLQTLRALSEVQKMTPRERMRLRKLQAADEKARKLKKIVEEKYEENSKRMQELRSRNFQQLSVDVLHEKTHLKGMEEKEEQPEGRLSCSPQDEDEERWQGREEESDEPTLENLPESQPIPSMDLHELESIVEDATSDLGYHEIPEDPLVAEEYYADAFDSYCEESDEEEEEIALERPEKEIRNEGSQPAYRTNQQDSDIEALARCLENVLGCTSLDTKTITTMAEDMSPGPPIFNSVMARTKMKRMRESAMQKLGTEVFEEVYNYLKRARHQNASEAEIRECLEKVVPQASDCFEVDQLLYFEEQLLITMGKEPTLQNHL
In short: (§1)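 Commercial selectivity screen of the test compound against a panel of 380 human recombinant protein kinases, run by an outside contractor at several compound concentrations to check whether its potency was specific for MK2.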

[2] = target: T2, 380 human recombinant protein kinases (Homo sapiens, UniProt Q16512); settings: PRK1(h), read-out: Inhibition rate
T2 construct: purchased Eurofins (Celle Lévescault)
T2 sequence (Q16512 whole entry): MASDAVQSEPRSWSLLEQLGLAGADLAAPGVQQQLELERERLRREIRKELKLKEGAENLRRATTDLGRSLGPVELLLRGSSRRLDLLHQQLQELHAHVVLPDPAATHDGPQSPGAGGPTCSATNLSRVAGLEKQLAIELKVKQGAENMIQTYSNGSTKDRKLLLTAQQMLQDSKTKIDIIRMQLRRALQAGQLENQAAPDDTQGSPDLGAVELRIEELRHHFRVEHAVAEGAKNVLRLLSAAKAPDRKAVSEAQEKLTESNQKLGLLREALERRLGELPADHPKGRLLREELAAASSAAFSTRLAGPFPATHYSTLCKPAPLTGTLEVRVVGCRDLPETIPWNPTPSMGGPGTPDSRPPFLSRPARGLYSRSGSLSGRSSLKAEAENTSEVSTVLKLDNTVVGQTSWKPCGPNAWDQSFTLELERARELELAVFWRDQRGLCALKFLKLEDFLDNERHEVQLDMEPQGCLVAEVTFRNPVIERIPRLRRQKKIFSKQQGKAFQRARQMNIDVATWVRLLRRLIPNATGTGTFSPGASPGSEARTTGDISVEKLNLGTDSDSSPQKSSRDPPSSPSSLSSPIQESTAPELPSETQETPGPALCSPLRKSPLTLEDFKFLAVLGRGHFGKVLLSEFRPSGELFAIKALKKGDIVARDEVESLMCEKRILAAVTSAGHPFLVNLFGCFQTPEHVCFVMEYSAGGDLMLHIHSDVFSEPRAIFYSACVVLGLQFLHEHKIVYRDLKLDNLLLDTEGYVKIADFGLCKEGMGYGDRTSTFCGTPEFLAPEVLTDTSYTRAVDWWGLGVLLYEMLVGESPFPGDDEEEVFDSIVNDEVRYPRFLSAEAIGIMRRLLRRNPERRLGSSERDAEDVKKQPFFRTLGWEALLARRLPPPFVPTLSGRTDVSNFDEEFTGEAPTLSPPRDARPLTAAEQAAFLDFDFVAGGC
In short: as §1

[3] = target: T3, 380 human recombinant protein kinases (Homo sapiens, UniProt O43318); settings: TAK1(h), read-out: Inhibition rate (%)
T3 construct: purchased Eurofins (Celle Lévescault)
T3 sequence (O43318 1-606): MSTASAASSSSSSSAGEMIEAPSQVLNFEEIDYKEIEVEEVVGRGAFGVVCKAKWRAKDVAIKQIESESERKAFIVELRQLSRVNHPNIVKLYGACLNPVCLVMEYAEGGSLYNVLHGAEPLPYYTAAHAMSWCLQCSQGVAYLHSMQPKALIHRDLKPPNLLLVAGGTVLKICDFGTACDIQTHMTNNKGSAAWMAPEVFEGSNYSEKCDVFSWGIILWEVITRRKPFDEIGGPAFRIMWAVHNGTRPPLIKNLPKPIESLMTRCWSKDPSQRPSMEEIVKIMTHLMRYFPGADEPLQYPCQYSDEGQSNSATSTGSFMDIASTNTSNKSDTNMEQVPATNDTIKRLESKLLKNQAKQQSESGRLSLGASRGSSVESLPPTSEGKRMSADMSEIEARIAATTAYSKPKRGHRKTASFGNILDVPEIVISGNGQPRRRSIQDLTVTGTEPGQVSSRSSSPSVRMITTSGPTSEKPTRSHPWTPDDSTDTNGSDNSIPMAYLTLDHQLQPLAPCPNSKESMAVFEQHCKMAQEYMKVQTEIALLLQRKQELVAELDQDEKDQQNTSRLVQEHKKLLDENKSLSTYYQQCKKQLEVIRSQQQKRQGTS
In short: as §1

[4] = target: T4, 380 human recombinant protein kinases (Homo sapiens, UniProt Q14012); settings: CaMKI(h), read-out: Inhibition rate
T4 construct: purchased Eurofins (Celle Lévescault)
T4 sequence (Q14012 whole entry): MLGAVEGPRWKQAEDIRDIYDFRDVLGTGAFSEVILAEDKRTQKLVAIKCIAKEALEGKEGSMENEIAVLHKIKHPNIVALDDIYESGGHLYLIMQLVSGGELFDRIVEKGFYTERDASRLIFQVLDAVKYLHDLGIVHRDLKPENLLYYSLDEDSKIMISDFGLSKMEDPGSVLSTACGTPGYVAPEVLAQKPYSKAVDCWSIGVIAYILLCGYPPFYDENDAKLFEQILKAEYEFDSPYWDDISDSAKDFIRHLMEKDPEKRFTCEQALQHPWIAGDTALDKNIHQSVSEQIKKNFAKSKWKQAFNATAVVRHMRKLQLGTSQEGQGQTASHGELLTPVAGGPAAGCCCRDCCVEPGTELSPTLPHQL
In short: as §1

[5] = target: T5, 380 human recombinant protein kinases (Homo sapiens, UniProt P43403); settings: ZAP-70(h), read-out: Inhibition rate (%)
T5 construct: purchased Eurofins (Celle Lévescault)
T5 sequence (P43403 1-619): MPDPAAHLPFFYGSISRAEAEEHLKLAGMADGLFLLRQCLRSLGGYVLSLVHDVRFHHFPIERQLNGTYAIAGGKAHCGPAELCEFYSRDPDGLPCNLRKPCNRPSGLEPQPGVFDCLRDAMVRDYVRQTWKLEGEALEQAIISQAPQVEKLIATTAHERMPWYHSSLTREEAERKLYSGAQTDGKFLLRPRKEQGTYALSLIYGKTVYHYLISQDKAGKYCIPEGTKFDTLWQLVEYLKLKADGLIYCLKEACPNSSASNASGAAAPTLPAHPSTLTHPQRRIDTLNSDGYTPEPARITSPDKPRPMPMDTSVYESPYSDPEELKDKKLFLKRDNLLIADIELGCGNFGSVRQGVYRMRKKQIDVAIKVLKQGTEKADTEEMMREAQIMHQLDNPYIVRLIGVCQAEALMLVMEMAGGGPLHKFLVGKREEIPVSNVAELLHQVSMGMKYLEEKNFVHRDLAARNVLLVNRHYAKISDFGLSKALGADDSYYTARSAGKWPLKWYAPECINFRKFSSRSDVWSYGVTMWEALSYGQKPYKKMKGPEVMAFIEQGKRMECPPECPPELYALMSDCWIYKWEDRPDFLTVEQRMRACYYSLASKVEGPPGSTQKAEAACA
In short: as §1

[6] = target: T6, 380 human recombinant protein kinases (Homo sapiens, UniProt P14616); settings: IRR(h), read-out: Inhibition rate
T6 construct: purchased Eurofins (Celle Lévescault)
T6 sequence (P14616 27-1297): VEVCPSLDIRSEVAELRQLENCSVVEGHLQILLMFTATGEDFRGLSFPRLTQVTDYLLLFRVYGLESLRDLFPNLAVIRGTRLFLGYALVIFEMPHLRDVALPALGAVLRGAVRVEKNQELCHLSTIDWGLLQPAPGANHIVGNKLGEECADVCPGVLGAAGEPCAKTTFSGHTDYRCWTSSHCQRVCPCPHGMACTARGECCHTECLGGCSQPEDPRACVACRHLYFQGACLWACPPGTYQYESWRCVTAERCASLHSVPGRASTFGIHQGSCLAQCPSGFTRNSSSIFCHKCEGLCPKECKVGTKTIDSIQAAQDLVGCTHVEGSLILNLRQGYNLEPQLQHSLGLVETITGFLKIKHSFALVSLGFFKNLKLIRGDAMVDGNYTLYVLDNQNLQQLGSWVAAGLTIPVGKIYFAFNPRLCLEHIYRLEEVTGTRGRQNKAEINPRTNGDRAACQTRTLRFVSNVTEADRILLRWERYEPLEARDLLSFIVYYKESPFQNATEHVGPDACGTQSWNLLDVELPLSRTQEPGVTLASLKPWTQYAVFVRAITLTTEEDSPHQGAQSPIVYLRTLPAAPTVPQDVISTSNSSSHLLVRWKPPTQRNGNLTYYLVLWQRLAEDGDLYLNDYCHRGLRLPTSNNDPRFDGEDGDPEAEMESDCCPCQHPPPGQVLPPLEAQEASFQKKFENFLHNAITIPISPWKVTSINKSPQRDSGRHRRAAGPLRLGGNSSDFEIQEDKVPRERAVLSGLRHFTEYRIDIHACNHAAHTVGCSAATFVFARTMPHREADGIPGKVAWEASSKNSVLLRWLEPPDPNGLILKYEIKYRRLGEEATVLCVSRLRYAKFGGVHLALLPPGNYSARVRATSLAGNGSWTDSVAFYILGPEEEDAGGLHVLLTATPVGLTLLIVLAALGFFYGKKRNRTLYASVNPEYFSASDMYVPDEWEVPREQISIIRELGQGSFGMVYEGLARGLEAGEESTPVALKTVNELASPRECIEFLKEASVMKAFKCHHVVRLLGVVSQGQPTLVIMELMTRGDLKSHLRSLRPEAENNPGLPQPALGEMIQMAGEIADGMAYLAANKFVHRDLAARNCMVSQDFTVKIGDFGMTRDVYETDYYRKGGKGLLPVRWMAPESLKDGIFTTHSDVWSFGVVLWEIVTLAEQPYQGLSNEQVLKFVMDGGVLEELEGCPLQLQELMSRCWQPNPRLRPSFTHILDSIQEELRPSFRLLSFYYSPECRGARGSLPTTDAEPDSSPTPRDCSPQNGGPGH
In short: as §1

[7] = target: T7, 380 human recombinant protein kinases (Homo sapiens, UniProt P15056); settings: B-Raf(h), read-out: Inhibition rate
T7 construct: purchased Eurofins (Celle Lévescault)
T7 sequence (P15056 whole entry): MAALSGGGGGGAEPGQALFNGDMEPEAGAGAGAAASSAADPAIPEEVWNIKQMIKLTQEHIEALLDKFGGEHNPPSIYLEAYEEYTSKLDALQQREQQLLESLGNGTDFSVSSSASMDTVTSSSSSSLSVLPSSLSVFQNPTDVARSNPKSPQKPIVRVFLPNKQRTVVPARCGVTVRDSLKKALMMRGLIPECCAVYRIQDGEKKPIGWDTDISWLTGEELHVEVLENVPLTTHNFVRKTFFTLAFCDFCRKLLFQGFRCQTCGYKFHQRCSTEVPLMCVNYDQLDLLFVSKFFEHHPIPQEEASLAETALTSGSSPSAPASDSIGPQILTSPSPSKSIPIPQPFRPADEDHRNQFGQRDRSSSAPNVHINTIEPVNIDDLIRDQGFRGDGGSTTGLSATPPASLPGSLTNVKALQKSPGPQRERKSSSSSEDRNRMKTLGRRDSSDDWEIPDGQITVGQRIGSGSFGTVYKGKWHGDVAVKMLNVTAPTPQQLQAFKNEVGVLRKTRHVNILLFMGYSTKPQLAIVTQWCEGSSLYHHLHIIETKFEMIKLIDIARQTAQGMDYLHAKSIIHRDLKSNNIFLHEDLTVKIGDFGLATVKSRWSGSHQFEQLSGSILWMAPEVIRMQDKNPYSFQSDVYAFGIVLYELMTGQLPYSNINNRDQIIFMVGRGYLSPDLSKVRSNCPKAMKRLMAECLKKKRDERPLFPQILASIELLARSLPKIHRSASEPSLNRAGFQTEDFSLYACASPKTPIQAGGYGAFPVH
In short: as §1

[8] = target: T8, 380 human recombinant protein kinases (Homo sapiens, UniProt O43293); settings: ZIPK(h), read-out: Inhibition rate (%)
T8 construct: purchased Eurofins (Celle Lévescault)
T8 sequence (O43293 whole entry): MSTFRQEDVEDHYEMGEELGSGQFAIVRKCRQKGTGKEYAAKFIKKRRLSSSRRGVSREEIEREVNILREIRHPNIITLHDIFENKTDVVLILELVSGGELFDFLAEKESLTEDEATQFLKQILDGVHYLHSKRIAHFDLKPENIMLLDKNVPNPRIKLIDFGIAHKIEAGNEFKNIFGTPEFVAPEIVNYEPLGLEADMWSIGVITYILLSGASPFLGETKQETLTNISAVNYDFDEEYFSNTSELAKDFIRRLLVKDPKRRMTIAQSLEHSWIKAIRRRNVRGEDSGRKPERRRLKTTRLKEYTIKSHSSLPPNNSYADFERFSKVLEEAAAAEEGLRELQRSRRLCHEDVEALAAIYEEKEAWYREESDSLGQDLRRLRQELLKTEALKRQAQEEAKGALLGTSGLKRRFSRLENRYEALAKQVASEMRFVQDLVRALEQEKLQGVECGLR
In short: as §1

Which inhibition at 0.01 µM ([1]; 10 nM) does the source give for `C=CC(=O)Nc1cc(-c2cc(-c3cc4c([nH]3)CCNC4=O)ccn2)ccc1OC(F)(F)F` [compound 11] here?
The inhibition at 0.01 µM was -1%.

What about the inhibition at 0.1 µM ([1]; 100 nM) of the same molecule?
The inhibition at 0.1 µM was 0%.

What about the inhibition at 1 µM ([1]; 1000 nM) of the same molecule?
Its inhibition at 1 µM is -4%.

And the inhibition at 0.01 µM ([2]; 10 nM)?
Its inhibition at 0.01 µM is -3%.

And the inhibition at 0.1 µM ([2]; 100 nM)?
The inhibition at 0.1 µM was 6%.

And the inhibition at 1 µM ([2]; 1000 nM)?
The inhibition at 1 µM was 4%.

And the inhibition at 0.01 µM ([3]; 10 nM)?
Its inhibition at 0.01 µM is 9%.

What about the inhibition at 0.1 µM ([3]; 100 nM) of the same molecule?
The inhibition at 0.1 µM was 2%.

What about the inhibition at 1 µM ([3]; 1000 nM) of the same molecule?
Its inhibition at 1 µM is 47%.

And the inhibition at 0.01 µM ([4]; 10 nM)?
Its inhibition at 0.01 µM is -3%.

And the inhibition at 0.1 µM ([4]; 100 nM)?
The inhibition at 0.1 µM was -3%.

And the inhibition at 1 µM ([4]; 1000 nM)?
The inhibition at 1 µM was -6%.

What about the inhibition at 0.01 µM ([5]; 10 nM) of the same molecule?
Its inhibition at 0.01 µM is 8%.

What about the inhibition at 0.1 µM ([5]; 100 nM) of the same molecule?
Its inhibition at 0.1 µM is 0%.

What about the inhibition at 1 µM ([5]; 1000 nM) of the same molecule?
The inhibition at 1 µM was -13%.

And the inhibition at 0.01 µM ([6]; 10 nM)?
The inhibition at 0.01 µM was 10%.

And the inhibition at 0.1 µM ([6]; 100 nM)?
The inhibition at 0.1 µM was 33%.

What about the inhibition at 1 µM ([6]; 1000 nM) of the same molecule?
Its inhibition at 1 µM is 61%.

What about the inhibition at 0.01 µM ([7]; 10 nM) of the same molecule?
Its inhibition at 0.01 µM is -7%.

What about the inhibition at 0.1 µM ([7]; 100 nM) of the same molecule?
The inhibition at 0.1 µM was -7%.

What about the inhibition at 1 µM ([7]; 1000 nM) of the same molecule?
The inhibition at 1 µM was 4%.

And the inhibition at 0.01 µM ([8]; 10 nM)?
Its inhibition at 0.01 µM is 4%.

And the inhibition at 0.1 µM ([8]; 100 nM)?
Its inhibition at 0.1 µM is 8%.

What about the inhibition at 1 µM ([8]; 1000 nM) of the same molecule?
Its inhibition at 1 µM is 15%.
